Measured values published in the NIST ThermoML archive (doi:10.1021/acs.jced.5b00807).
± gives the expanded uncertainty stated by the source.

Legend:
[1] = Molar enthalpy of transition or fusion; settings: Crystal 2; DSC
[2] = DSC

CCCCCCCCCCCCCCCC[N+](C)(C)C.O=S(=O)([N-]S(=O)(=O)C(F)(F)F)C(F)(F)F
Molar enthalpy of transition or fusion [1]: 7.03 ± 0.717 kcal/mol
Triple point temperature ([2]; Crystal 1): 335 ± 4 K
Triple point temperature ([2]; Crystal 2): 319 ± 4 K

CC[N+](C)(C)C.O=S(=O)([N-]S(=O)(=O)C(F)(F)F)C(F)(F)F [ethyltrimethylammonium bis(trifluoromethylsulfonyl)imide]
Triple point temperature ([2]; Crystal): 383 ± 4 K

O=S(=O)([N-]S(=O)(=O)C(F)(F)F)C(F)(F)F.[Li+] [lithium bis((trifluoromethyl)sulfonyl)amide]
Molar enthalpy of transition or fusion [1]: 2.84 ± 0.287 kcal/mol
Triple point temperature ([2]; Crystal 1): 508 ± 4 K
Triple point temperature ([2]; Crystal 2): 422 ± 4 K

CCCC[N+](CCCC)(CCCC)CCCC.O=S(=O)([N-]S(=O)(=O)C(F)(F)F)C(F)(F)F [tetrabutylammonium bis[(trifluoromethyl)sulfonyl]imide]
Triple point temperature ([2]; Crystal): 365 ± 4 K
